Test results reported in US11498930B2 (BLUERAY THERAPEUTICS (SHANGHAI) CO., LTD., priority 2018, dated 2022).
Like-named read-outs stand apart in the source and are kept apart here.

Legend:
[1] = tested on: phosphorylation level of intracellular protein kinase (ERK) in MOLM13 cells; experiment: Phosphorylated protein kinase (p-ERK) cell experiment (AlphaLISA); type: cell-based; conditions: Homo sapiens, MOLM-13, MOLM13 cells
SHP2^E76A protein = SHP2^E76A protein (Homo sapiens (Human), UniProt Q06124, E76A); experiment: SHP2 enzyme activity inhibition experiment; type: biochemical
Sequence of SHP2^E76A protein (Q06124 whole entry E76A): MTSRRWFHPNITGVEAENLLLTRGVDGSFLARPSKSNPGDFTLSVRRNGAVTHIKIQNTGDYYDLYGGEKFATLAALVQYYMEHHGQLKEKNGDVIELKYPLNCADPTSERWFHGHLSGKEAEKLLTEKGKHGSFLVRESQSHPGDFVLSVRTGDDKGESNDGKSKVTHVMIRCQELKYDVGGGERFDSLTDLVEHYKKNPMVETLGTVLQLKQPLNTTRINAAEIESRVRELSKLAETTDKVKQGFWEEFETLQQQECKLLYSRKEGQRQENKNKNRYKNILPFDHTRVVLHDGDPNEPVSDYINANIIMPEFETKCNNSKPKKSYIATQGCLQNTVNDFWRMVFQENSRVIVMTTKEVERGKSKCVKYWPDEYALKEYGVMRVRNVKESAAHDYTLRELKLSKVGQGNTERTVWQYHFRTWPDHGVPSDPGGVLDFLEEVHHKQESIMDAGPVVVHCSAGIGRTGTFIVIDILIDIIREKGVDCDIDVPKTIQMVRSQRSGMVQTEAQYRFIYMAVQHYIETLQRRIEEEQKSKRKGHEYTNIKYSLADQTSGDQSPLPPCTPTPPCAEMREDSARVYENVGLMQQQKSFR
Summary of the method: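 Compounds tested at 10 concentrations in 3-fold serial dilution. IC50 from a four-parameter Hill-slope nonlinear fit of enzyme activity versus concentration.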

MOLM-13 cells = experiment: MOLM-13 cell proliferation experiment; type: cell-based
Experimental: After 3 days, 5 µL of CellTiter-Glo reagent (Promega, ZG7572) was added to each well, and the plates were kept at room temperature in the dark for 10 minutes. The […] was detected by Spectra max i3 (Molecular Devices). The relative growth rate of the treated cells was compared with that of DMSO control.

[2] = p-ERK, 2 hours of cell treatment, Tables 2.1 and 2.2, read-out: IC50
[3] = SHP2 enzyme activity, Tables 1.1 and 1.2, read-out: IC50
[4] = Homo sapiens, MOLM-13, 72 h, MOLM-13 cell proliferation, 3 days, Tables 3.1 and 3.2, read-out: IC50
[5] = Table 4, read-out: SHP2 enzyme activity IC50
[6] = Homo sapiens, MOLM-13, read-out: MOLM-13 cell proliferation IC50

Row | Structure (SMILES) | IC50 [1, 2] | IC50 (SHP2^E76A protein; [3]) | IC50 (MOLM-13 cells; [4]) | IC50 ([1]; Table 4, read-out: p-ERK IC50) | IC50 (SHP2^E76A protein; [5]) | IC50 (MOLM-13 cells; [6]) | IC50 (MOLM-13 cells; MOLM-13 cell proliferation, 3 days, Tables 3.1 and 3.2, read-out: IC50)
1 | C=CC(=O)Nc1cccc(Sc2cnc(N3CCC4(CCC[C@H]4N)CC3)n3ccnc23)c1Cl [(R)-N-(3-((5-(1-amino-8-azaspiro[4.5]decan-8-yl)imidazo[1,2-c]pyrimidin-8-yl)thio)-2-chlorophenyl)acrylamide] | 100 to 1000 nM | 100 to 1000 nM | 100 to 1000 nM |  |  |  | 
2 | N[C@@H]1COCC12CCN(c1ncc(Sc3cccc(Cl)c3Cl)c3ncnn13)CC2 [(S)-8-(8-((2,3-dichlorophenyl)thio)-[1,2,4]triazolo[1,5-c]pyrimidin-5-yl)-2-oxa-8-azaspiro[4.5]decan-4-amine] | 1000 to 10000 nM | 100 to 1000 nM | 100 to 1000 nM |  |  |  | 
3 | N[C@@H]1COCC12CCN(c1ncc(Sc3cccc(Cl)c3Cl)c3nncn13)CC2 [(S)-8-(8-((2,3-dichlorophenyl)thio)-[1,2,4]triazolo[4,3-c]pyrimidin-5-yl)-2-oxa-8-azaspiro[4.5]decan-4-amine] | 100 to 1000 nM | < 100 nM | 100 to 1000 nM | 168 nM | 20 nM | 892 nM | 
4 | N[C@@H]1COCC12CCN(c1ncc(Sc3ccnc(Cl)c3Cl)c3nccn13)CC2 [(S)-8-(8-((2,3-dichloropyridin-4-yl)thio)imidazo[1,2-c]pyrimidin-5-yl)-2-oxa-8-azaspiro[4.5]decan-4-amine] | 100 to 1000 nM | < 100 nM | 100 to 1000 nM |  |  |  | 
5 | Nc1nccc(Sc2cnc(N3CCC4(CC3)COC[C@H]4N)n3cnnc23)c1Cl [(S)-8-(8-((2-amino-3-chloropyridin-4-yl)thio)-[1,2,4]triazolo[4,3-c]pyrimidin-5-yl)-2-oxa-8-azaspiro[4.5]decan-4-amine] | 100 to 1000 nM | 100 to 1000 nM | 1000 to 10000 nM |  |  |  | 
6 | Nc1nccc(Sc2cnc(N3CCC4(CC3)COC[C@H]4N)n3ccnc23)c1Cl [(S)-8-(8-((2-amino-3-chloropyridin-4-yl)thio)imidazo[1,2-c]pyrimidin-5-yl)-2-oxa-8-azaspiro[4.5]decan-4-amine] | 100 to 1000 nM | < 100 nM | 100 to 1000 nM |  |  |  | 
7 | Nc1cc(Sc2cnc(N3CCC4(CC3)COC[C@H]4N)n3ccnc23)c(Cl)c(Cl)n1 [(S)-8-(8-((6-amino-2,3-dichloropyridin-4-yl)thio)imidazo[1,2-c]pyrimidin-5-yl)-2-oxa-8-azaspiro[4.5]decan-4-amine] | < 100 nM | < 100 nM | < 100 nM | 28 nM | 9 nM | 54 nM | 
8 | Cc1nc(N)cc(Sc2cnc(N3CCC4(CC3)COC[C@H]4N)n3ccnc23)c1Cl [(S)-8-(8-((6-amino-3-chloro-2-methyl-pyridin-4-yl)thio)imidazo[1,2-c]pyrimidin-5-yl)-2-oxa-8-azaspiro[4.5]decan-4-amine] | 100 to 1000 nM | < 100 nM | 100 to 1000 nM | 160 nM | 34 nM | 340 nM | < 100 nM
